B1: carbonyl reductase from Lactococcus lactis (LL-CR) (Lactococcus lactis subsp. lactis Il1403) (protein)
chain: MKTLITGENKGIGFALAQNLGHRGYEVLVGARNETRGQEAVEKLKAEGITAKFVKVDLDDLNQLTSLSALTDIDLLINNAGISGNIHSDKGHLDMEKSAFDYSTTDLEETIKTNFLGTHAVIKELLPHSLTENAKIINITVPVSQEYWMPLAYVTSKAAQNAMTFAFGHQFKKDKSKKQIFAVMPGAVATDLNGAKVGDSPFVKSPEETAQMISKFIFDDKNHNAQIINFDGTIYDNYEPGLRNKVIKDVAKNGLKRKFKK

Key:
[1] = test system: carbonyl reductase from Lactococcus lactis; test: CRLL activity assay (decrease of NADPH absorption); substrate table of the isolated carbonyl reductase; type: biochemical; conditions: Substrate (20 mM); for spec. Act. (U/mg): activity per protein (0.37, 5.5 or 6.6 mg/mL)
From the text: The construct crll-pkk223-3 as well as crll-his-pkk223-3 were both transformed separately into the E. coli host strain HB101 for expression.

[2] = target: T1, carbonyl reductase from Lactococcus lactis (LL-CR) (Lactococcus lactis, UniProt Q9CJ60); test: Purified CRLL activity in aqueous-organic tunable solvents (OATS); type: biochemical
Protocol: As LL-CR requires organic buffers for stability, such as HEPES or triethanolamine, runs were conducted in partially organic systems using a buffer system of 200 mM NH4CHO3 and 50 mM HEPES at pH 7.0.

[3] = target: T1, carbonyl reductase from Lactococcus lactis (LL-CR); test: Oxidation of secondary alcohols to ketones by LL-CR (enantiospecificity); type: biochemical
[4] = target: T1, carbonyl reductase from Lactococcus lactis (LL-CR); test: Enzyme characterisation of purified LL-CR (KM, vmax, kcat, pH and T optima); type: biochemical
[5] = substrate: CC(=O)c1ccccc1; test: as above; type: biochemical, Lactococcus lactis; conditions: other: pH 7.0 and 30° C.

Molecule	Activity (U/mL) [1] [U/mL]	spec. Act. (U/mg) [1] [U/mg]	further results
CC(=O)c1ccccc1 [acetophenone]	53	8.03	
CC(C)O [isopropanol]			specific activity of LL-CR on isopropanol ([2]; regeneration substrate, extends beyond 50% solvent content): 2-4 U/mg protein
CCC(=O)c1ccccc1 [propiophenone]	2.2	0.4	
CC1(C)COC(=O)C1=O [ketopantolactone]	9.49	25.65	
COC(=O)CC(C)=O [Methyl acetoacetate]	36.7	5.561	
O=C1CCCCC1 [cyclohexanone]	49	7.424	
CCCCCC=O [hexylaldehyde]	45.82	6.942	
CC(C)=O [acetone]	8.36	22.59	
CCOC(=O)C(=O)c1ccccc1 [ethyl benzoylformate]	11.25	1.705	
CCOC(=O)CC(C)=O [ethyl acetoacetate]	7.07	19.11	
CCOC(=O)CC(=O)c1ccccc1 [ethyl benzoylacetate]	4.98	13.46	
CCC=O [propionaldehyde]	69	10.45	
CC(=O)C(C)(C)C [pinacolone]	22.5	3.409	
CCOCCO [ethoxyethanol]	0.0128	0.03459	
O=C(O)C(=O)c1ccccc1 [benzoylformate]	0	0	
OCCOCCO [diethyleneglycol]	0.38	1.027	
CCCC[C@@H](C)O [(R)-2-hexanol]			oxidation of secondary alcohol to the respective ketone [3]: can oxidize
O=C1CCCC2CCCCC12 (centres unmarked) [1-decalone]	5.29	14.3	
CCCCCCCC=O [octylaldehyde]	10.93	1.656	

Molecule	Activity (U/mL) [1] [U/mL]	spec. Act. (U/mg) [1] [U/mg]	further results
CC(=O)C(C)C [3-methyl-2-butanone]	12.06	32.59	
CC1CC(=O)CC(C)(C)C1 (centres unmarked) [3,3,5-trimethyl-CHone]	0.24	0.6486	
O=Cc1ccccc1 [benzaldehyde]	8.3	1.258	
CC(O)CO (centres unmarked) [1,2-propanediol]	0.025	0.06757	
CC(=O)COc1ccccc1 [Phenoxy-2-propanone]	10.61	28.68	
CC(=O)CC(C)C [4-methyl-2-pentanone]	21.7	3.288	
CCOC(=O)C(C)=O [ethyl pyruvate]	16.32	2.473	
CC(=O)CO [hydroxyacetone]	0.77	2.081	
CCCCC(C)=O [2-hexanone]	1.28	3.459	
CC(=O)CCC(C)=O [acetonylacetone]	57.88	8.77	
CC(=O)CC(C)=O [2,4-pentane-dione]	90.77	13.75	
COC(=O)C(=O)c1ccccc1 [Methyl benzoylformate]	3.86	0.5848	
CCCC=O [butyraldehyde]	12.7	34.32	
O=C1CCc2ccccc21 [1-indanone]		0	
CCCC(=O)CC(=O)OCC [ethyl 3-oxohexanoate]	9.64	26.05	
t-butylcyclohexanone	0	0	
tetralone	3.2	0.4848	
C[C@@H](O)c1ccccc1 [(R)-1-phenyl-1-ethanol]			oxidation of secondary alcohol to the respective ketone [3]: can oxidize
B1			organic solvent content at which enzyme is active ([2]; 200 mM NH4HCO3/50 mM HEPES, pH 7.0, 30° C.): up to 50%; organic solvent content at which stable ([2]; acetonitrile, dioxane, or tetrahydrofuran): below 60%; T optimum [4]: 40 °C; pH optimum [4]: 6.5; calculated kcat ([4]; pH 7.0 and 30° C.): 24 s⁻¹; vmax ([4]; pH 7.0 and 30° C.): 80 U/mg pure protein; Km [5]: 0.5 mM
